Results: ChEMBL document CHEMBL1201862, “PubChem BioAssay data set” (2004)
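How tested: cells in 96-well plates exposed to compound for 48 hours at five concentrations. GI50 is the concentration that inhibits growth by half.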 Activity calls are given as the source filed them. No stated cut-off is given here; in the data, active = GI50 up to about 1.1 µM and inactive = higher. Where a SMILES comes first, the peptide text is derived from it. The star is where a group is joined. Cbz = O=C(OCc1ccccc1)*; Boc = CC(C)(C)OC(=O)*; tBu = CC(C)(C)*

Columns and labels:
Experiment in all cases: NCI anticancer screen, dose series, 48 h
[1] = system: HOP-62
[2] = system: SF-539
[3] = system: LOX IMVI
[4] = system: RPMI-8226
[5] = system: MDA-MB-231
[6] = system: Hs-578T
[7] = system: 786-0
[8] = system: U-251
[9] = system: OVCAR-5
[10] = system: A498
[11] = system: EKVX
[12] = system: SK-MEL-2
[13] = system: NCI-H460
[14] = system: T47D
[15] = system: UO-31
[16] = system: HCC 2998
[17] = system: MCF7
[18] = system: CCRF-CEM
[19] = system: SN12C
[20] = system: SNB-19

| Compound | GI50 [1] | GI50 [2] | GI50 [3] | GI50 [4] | GI50 [5] | GI50 [6] | GI50 [7] | GI50 [8] | GI50 [9] | GI50 [10] | GI50 [11] | GI50 [12] | GI50 [13] | GI50 [14] | GI50 [15] | GI50 [16] | GI50 [17] | GI50 [18] | GI50 [19] | GI50 [20] |
| --- | --- | --- | --- | --- | --- | --- | --- | --- | --- | --- | --- | --- | --- | --- | --- | --- | --- | --- | --- | --- |
| CCn1c(-c2cc3ccccc3cc2OC(C)=O)n[nH]c1=S | 57.3 µM (inactive) | 35.6 µM (inactive) | 37.2 µM (inactive) | 18.7 µM (inactive) | 26.1 µM (inactive) | 15.2 µM (inactive) | 75.7 µM (inactive) | 20.2 µM (inactive) | 44.6 µM (inactive) | 25.8 µM (inactive) | 9.95 µM (inactive) | 18.2 µM (inactive) | 24.7 µM (inactive) | 18.6 µM (inactive) | 67.8 µM (inactive) | 18 µM (inactive) | 30.8 µM (inactive) | 1.16 µM (inactive) | – | – |
| COc1oc(C(=O)NC2CCCCC2)c(-c2ccc(Cl)cc2)c1S(=O)(=O)c1ccccc1 | 6.27 µM (inactive) | 6.58 µM (inactive) | 2.78 µM (inactive) | 2.15 µM (inactive) | 9.51 µM (inactive) | 16.2 µM (inactive) | 1.99 µM (inactive) | 2.64 µM (inactive) | 23.4 µM (inactive) | 2.15 µM (inactive) | 9.98 µM (inactive) | 13.4 µM (inactive) | 10.5 µM (inactive) | 37.7 µM (inactive) | 1.82 µM (inactive) | 19 µM (inactive) | 36.1 µM (inactive) | 2.2 µM (inactive) | 20.1 µM (inactive) | 99.3 µM (inactive) |
| COc1ccc(CC2c3cc(OC)c(OC)cc3CC[N+]2(C)C)cc1OC (stereo not given) | – | > 100 µM (inactive) | > 100 µM (inactive) | > 100 µM (inactive) | > 100 µM (inactive) | > 100 µM (inactive) | > 100 µM (inactive) | > 100 µM (inactive) | > 100 µM (inactive) | > 100 µM (inactive) | > 100 µM (inactive) | > 100 µM (inactive) | > 100 µM (inactive) | > 100 µM (inactive) | > 100 µM (inactive) | > 100 µM (inactive) | > 100 µM (inactive) | > 100 µM (inactive) | > 100 µM (inactive) | > 100 µM (inactive) |
| N#CSc1ccc(S(N)(=O)=O)cc1 | > 100 µM (inactive) | 25.1 µM (inactive) | 31.3 µM (inactive) | 26.5 µM (inactive) | 44.6 µM (inactive) | > 100 µM (inactive) | 26.1 µM (inactive) | 17.4 µM (inactive) | 59.8 µM (inactive) | > 100 µM (inactive) | > 100 µM (inactive) | 46.5 µM (inactive) | > 100 µM (inactive) | 31.8 µM (inactive) | 19.4 µM (inactive) | > 100 µM (inactive) | 35.6 µM (inactive) | 8.07 µM (inactive) | > 100 µM (inactive) | > 100 µM (inactive) |
| C=CC[C@@]1(C)CCCCCCCCC[C@@](C)(CC=C)C1=O | 38.4 µM (inactive) | 41.1 µM (inactive) | 18.1 µM (inactive) | 28.3 µM (inactive) | 28.8 µM (inactive) | 18.9 µM (inactive) | 31.3 µM (inactive) | 18.9 µM (inactive) | > 100 µM (inactive) | 17.1 µM (inactive) | 38.4 µM (inactive) | 17.8 µM (inactive) | 24.4 µM (inactive) | 21.2 µM (inactive) | 53.6 µM (inactive) | 17.4 µM (inactive) | 38.8 µM (inactive) | 20.2 µM (inactive) | 29.2 µM (inactive) | 20.5 µM (inactive) |
| NC(=O)c1nnc2cc(F)ccc2c1N | > 100 µM (inactive) | > 100 µM (inactive) | 78.3 µM (inactive) | > 100 µM (inactive) | > 100 µM (inactive) | > 100 µM (inactive) | > 100 µM (inactive) | > 100 µM (inactive) | > 100 µM (inactive) | 91.6 µM (inactive) | 85.7 µM (inactive) | > 100 µM (inactive) | > 100 µM (inactive) | > 100 µM (inactive) | 67.3 µM (inactive) | > 100 µM (inactive) | > 100 µM (inactive) | > 100 µM (inactive) | > 100 µM (inactive) | > 100 µM (inactive) |
| COC(=O)[C@]12CCC(C)(C)C[C@H]1[C@H]1C(=O)C=C3[C@@]4(C)C=C(C#N)C(=O)C(C)(C)[C@@H]4CC[C@@]3(C)[C@]1(C)CC2 [BARDOXOLONE METHYL] | 0.0268 µM (active) | 0.0419 µM (active) | 0.0129 µM (active) | < 0.0104 µM (active) | 0.0301 µM (active) | 0.0321 µM (active) | 0.0279 µM (active) | 0.0232 µM (active) | 0.04 µM (active) | 0.046 µM (active) | 0.0395 µM (active) | 0.027 µM (active) | 0.0205 µM (active) | 0.0288 µM (active) | 0.0818 µM (active) | 0.0112 µM (active) | < 0.0107 µM (active) | < 0.01 µM (active) | 0.0237 µM (active) | 0.0408 µM (active) |
| Cc1c(C#N)c2nnn(-c3cccc(Cl)c3)c(=O)n2c1-c1ccccc1 | 0.891 µM (active) | 1.59 µM (inactive) | 7.5 µM (inactive) | 0.637 µM (active) | 1.57 µM (inactive) | 6.64 µM (inactive) | 2.99 µM (inactive) | 2.33 µM (inactive) | 3.75 µM (inactive) | 2.36 µM (inactive) | 5.69 µM (inactive) | 1.27 µM (inactive) | 3.15 µM (inactive) | 4.25 µM (inactive) | 8.97 µM (inactive) | 3.48 µM (inactive) | 4.02 µM (inactive) | 3.66 µM (inactive) | 3.83 µM (inactive) | 10.3 µM (inactive) |
| COC(=O)C1(Cc2ccc3c(c2)CCC3)Cc2ccc3c(c2C1=O)CCC3 (stereo not given) | 7.23 µM (inactive) | 5.68 µM (inactive) | 5.87 µM (inactive) | 5.4 µM (inactive) | 5.78 µM (inactive) | 3.26 µM (inactive) | 7.33 µM (inactive) | 4.65 µM (inactive) | 21.1 µM (inactive) | 5.61 µM (inactive) | 11.1 µM (inactive) | 4.32 µM (inactive) | 12.7 µM (inactive) | 4.35 µM (inactive) | 10.6 µM (inactive) | 6.95 µM (inactive) | 3.43 µM (inactive) | 5.21 µM (inactive) | 12.2 µM (inactive) | 8.91 µM (inactive) |
| CCOC(=O)C1=C(OS(=O)(=O)C(F)(F)F)CCCC1 | > 100 µM (inactive) | > 100 µM (inactive) | > 100 µM (inactive) | > 100 µM (inactive) | > 100 µM (inactive) | > 100 µM (inactive) | > 100 µM (inactive) | > 100 µM (inactive) | > 100 µM (inactive) | > 100 µM (inactive) | > 100 µM (inactive) | > 100 µM (inactive) | > 100 µM (inactive) | > 100 µM (inactive) | > 100 µM (inactive) | > 100 µM (inactive) | > 100 µM (inactive) | > 100 µM (inactive) | – | > 100 µM (inactive) |
| O=C(NC1=NC2C=CC([N+](=O)[O-])=CC2S1)C(=O)Nn1c(S)nc2ccccc2c1=O (stereo not given) | > 100 µM (inactive) | > 100 µM (inactive) | 67.3 µM (inactive) | 50.6 µM (inactive) | 63.8 µM (inactive) | 39.4 µM (inactive) | > 100 µM (inactive) | 66.7 µM (inactive) | > 100 µM (inactive) | 30.4 µM (inactive) | 33.7 µM (inactive) | > 100 µM (inactive) | 80.5 µM (inactive) | 80.5 µM (inactive) | 27.7 µM (inactive) | > 100 µM (inactive) | 97.7 µM (inactive) | 45.9 µM (inactive) | > 100 µM (inactive) | 24.3 µM (inactive) |
| CC(OC(C)(C)C)C(NC(=O)C(CCCCNC(=O)OC(C)(C)C)NC(=O)C(Cc1c[nH]c2ccccc12)NC(=O)C(Cc1ccccc1)NC(=O)OCc1ccccc1)C(=O)NC(Cc1ccccc1)C(=O)O (stereo not given) (Cbz-FWK(Boc)T(tBu)F-OH; configuration not given here) | > 100 µM (inactive) | 31.8 µM (inactive) | 29.4 µM (inactive) | 43.5 µM (inactive) | 40.2 µM (inactive) | 0.9 µM (active) | > 100 µM (inactive) | 37.9 µM (inactive) | 33.1 µM (inactive) | > 100 µM (inactive) | > 100 µM (inactive) | 41.7 µM (inactive) | > 100 µM (inactive) | 28.4 µM (inactive) | > 100 µM (inactive) | 30.8 µM (inactive) | 31.1 µM (inactive) | 28.1 µM (inactive) | 25.8 µM (inactive) | 37.7 µM (inactive) |
| N#Cc1nnc2c3c(-c4ccc(Cl)cc4)c(C#N)c(O)nc3nn2c1N | 4.79 µM (inactive) | 2.88 µM (inactive) | 2.85 µM (inactive) | 8.05 µM (inactive) | 13.4 µM (inactive) | 3.4 µM (inactive) | 5.14 µM (inactive) | 1.28 µM (inactive) | 24.8 µM (inactive) | 2.77 µM (inactive) | 12.9 µM (inactive) | 9.84 µM (inactive) | 9.14 µM (inactive) | 1.17 µM (inactive) | 6.25 µM (inactive) | 3.14 µM (inactive) | 2.06 µM (inactive) | 3.63 µM (inactive) | 2.38 µM (inactive) | 3.25 µM (inactive) |
| C[C@@H](NC(=O)Cn1c(Cl)nc2ccccc21)c1ccccc1 | > 100 µM (inactive) | > 100 µM (inactive) | 75.7 µM (inactive) | > 100 µM (inactive) | > 100 µM (inactive) | 51.6 µM (inactive) | > 100 µM (inactive) | > 100 µM (inactive) | > 100 µM (inactive) | > 100 µM (inactive) | 26.7 µM (inactive) | > 100 µM (inactive) | > 100 µM (inactive) | 36.2 µM (inactive) | > 100 µM (inactive) | > 100 µM (inactive) | > 100 µM (inactive) | > 100 µM (inactive) | – | > 100 µM (inactive) |
